Measurements published in patent US20240374692A1, “A NOVEL ACYLATED INSULIN ANALOG” (SUNSHINE LAKE PHARMA CO., LTD., priority 2021, published 2024).
Read-outs that look alike come from different tables or passages of the source.

Tests used:
insulin receptor B = target: T1, insulin receptor B (Homo sapiens, UniProt P06213); assay: Insulin receptor B autophosphorylation in transfected cells (Cisbio Phospho-IR beta Tyr1150/1151 kit); type: cell-based; conditions: for Relative HI activity: relative to human insulin; for Relative 0% HSA activity: 1.5% HSA relative to 0% HSA
T1 construct: expressed in transfected cells
T1 sequence (P06213 28-758 limits assumed): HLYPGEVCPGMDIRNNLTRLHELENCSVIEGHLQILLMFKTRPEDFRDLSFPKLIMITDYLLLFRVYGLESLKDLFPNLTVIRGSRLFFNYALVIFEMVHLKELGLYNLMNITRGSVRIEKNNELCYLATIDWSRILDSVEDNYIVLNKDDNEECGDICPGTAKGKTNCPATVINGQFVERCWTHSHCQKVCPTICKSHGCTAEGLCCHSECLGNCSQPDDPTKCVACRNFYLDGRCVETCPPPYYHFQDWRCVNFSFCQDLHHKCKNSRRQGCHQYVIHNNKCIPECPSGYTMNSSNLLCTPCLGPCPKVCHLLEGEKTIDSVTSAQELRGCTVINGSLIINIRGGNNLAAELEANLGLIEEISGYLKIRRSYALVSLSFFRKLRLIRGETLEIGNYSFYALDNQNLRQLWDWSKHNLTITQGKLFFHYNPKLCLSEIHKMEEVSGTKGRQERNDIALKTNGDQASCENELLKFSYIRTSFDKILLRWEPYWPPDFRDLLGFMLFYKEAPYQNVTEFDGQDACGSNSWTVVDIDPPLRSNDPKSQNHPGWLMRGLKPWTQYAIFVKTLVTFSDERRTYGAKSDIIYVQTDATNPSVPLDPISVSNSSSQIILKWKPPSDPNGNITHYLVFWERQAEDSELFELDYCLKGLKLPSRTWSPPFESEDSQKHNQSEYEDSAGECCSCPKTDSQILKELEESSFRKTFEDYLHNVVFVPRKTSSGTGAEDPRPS
T1 sequence (P06213 763-1382 partner limits assumed): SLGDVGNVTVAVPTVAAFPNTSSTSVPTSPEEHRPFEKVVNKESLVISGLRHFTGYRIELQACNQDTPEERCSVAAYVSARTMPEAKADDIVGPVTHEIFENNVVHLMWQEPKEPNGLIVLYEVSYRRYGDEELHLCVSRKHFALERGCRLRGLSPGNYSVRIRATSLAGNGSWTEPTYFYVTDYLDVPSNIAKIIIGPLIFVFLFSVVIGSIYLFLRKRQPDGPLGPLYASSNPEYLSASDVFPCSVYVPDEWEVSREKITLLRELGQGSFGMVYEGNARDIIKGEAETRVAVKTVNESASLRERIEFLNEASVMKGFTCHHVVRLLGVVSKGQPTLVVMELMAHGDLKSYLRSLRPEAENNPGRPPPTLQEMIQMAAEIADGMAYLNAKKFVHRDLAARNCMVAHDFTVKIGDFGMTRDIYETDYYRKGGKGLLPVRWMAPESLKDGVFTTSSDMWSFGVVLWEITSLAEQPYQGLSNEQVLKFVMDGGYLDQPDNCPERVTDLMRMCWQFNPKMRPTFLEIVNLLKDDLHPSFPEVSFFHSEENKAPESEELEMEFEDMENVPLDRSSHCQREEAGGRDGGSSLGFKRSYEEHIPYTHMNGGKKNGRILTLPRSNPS
Method: The phosphorylation level of insulin receptor B was detected by Cisbio's Phospho-IR beta (Tyr1150/1151) kit method to evaluate the biological activity of insulin. The cells were seeded into a 96-well plate overnight, and after the serum in the medium was removed, 40 μl of serum-free medium was added to culture for about 4 h. Then a dilution series of insulin derivatives were prepared with blank solution (0.6% casein, 0.06 mg/mL EDTA, 1×DPBS) and incubated with cells in the 96-well plate for 5 min in a CO2 incubator (37° C., 5% CO2). The liquid in the 96-well plate was poured off, 100 µL of a mixture of lysis buffer (2% Triton X-100, 150 mM NaCl, 50 mM HEPES, pH=7) and inhibitor (Blocking Reagent in the kit) was added to lyse the cells, then the plate was shaken at 350 rpm for 30 min. Relative activity (in percent (%)) was assessed by measuring insulin receptor phosphorylation levels in the supernatant after cell lysis and fitting a curve to the data using nonlinear regression in Graphpad Prism 5 software. Related assays were also used, in which the blank solution also contained 1.5% HSA to simulate physiological conditions. Changes in the phosphorylation levels of the insulin-activated insulin receptors of the invention were detected as an indirect reflection of the albumin binding activity.

normal C57BL/6 mice = assay: Hypoglycemic effect, single subcutaneous administration to normal C57BL/6 mice; type: in vivo; set-up: blood glucose: unit not given here; conditions: for blood glucose compared with the control group: 1 h after single S.C. administration; for blood glucose: Mean ± SEM, n = 6
Method: SPF grade C57BL/6 mice were reared in a suitable rearing box in a barrier environment, with a rearing temperature of 20-26° C., a humidity of 40-70%, a time between day and night of 12 h/12 h, and the mice had free access to standard food and autoclaved sterilization water. After a 3-day quarantine period and a 2-day acclimation period, random blood glucose was measured and mice were weighed. Mice were divided into 6 groups according to random blood glucose and body weight.
Single subcutaneous administration (S.C.) was used to administer the corresponding vehicle or drug. The control group was administered the vehicle PBS without fasting during the whole process, and the animals were allowed to eat and drink freely. Random blood glucose values of C57 mice were measured before administration and at 0.25, 0.5, 1, 2, 4, 6, 8, 10, 24, 48, 54, 72 and 96 hours after administration.
(§1) All raw data were entered into Excel files and expressed as Mean±SEM. Statistical analysis of data was performed using Graphpad Prism 7.0 software, one-way or two-way ANOVA comparison method, and P<0.05 was used as the criterion for significant differences.

[1] = test system: STZ-induced type I diabetes mellitus (T1DM) C57BL/6 mice; assay: Hypoglycemic effect, repeated administration (three times) to STZ-induced T1DM C57BL/6 mice (Example 6); type: in vivo; set-up: key to random blood glucose: blood glucose in mmol/L; conditions: for random blood glucose: Mean ± SEM, n = 7
Method: SPF grade C57BL/6 mice were reared in a suitable rearing box in a barrier environment, with a rearing temperature of 20-26° C., a humidity of 40-70%, a time between day and night of 12 h/12 h, and the mice had free access to standard food and autoclaved sterilization water. After the 3-day quarantine period and the 2-day acclimation period, the mice were fasted for 12 h, and the mice were injected intraperitoneally with streptozotocin solution (STZ, 13 mg/mL, in citrate buffer) at 130 mg/kg. 3 Days and 7 days after administration of streptozotocin, random blood glucose and fasting blood glucose were detected, and the random blood glucose value above 25 mmol/L and fasting blood glucose value above 11.1 mmol/L were selected as T1DM model mice for follow-up experiments. On the day before administration, random blood glucose was monitored and mice were weighed. Mice were divided into 6 groups according to random blood glucose and body weight.
Subcutaneous administration (S.C.) was used to administer the corresponding vehicle or drug, once every 4-5 days, for a total of 3 administrations. During the experiment, the animals were allowed to eat and drink water freely. The random blood glucose before the first administration, and 0.25, 0.5, 1, 2, 4, 6, 8, 10, 24, 48, 72, and 96 h after administration were assessed, as well as the random blood glucose before the second and third administration, and 0.5, 1, 2, 6, 24, 48, 72, 96 and 120 h after administration.
as §1

[2] = rat, in vivo, sc, 10 nmol/kg
[3] = dog, in vivo, iv, 10 nmol/kg
Method: Two beagle dogs, one in each group, a double-cycle crossover design was used, with a washout period of 1 week, and a single dose of 10 nmol/kg of Icodec or Insulin-a10 was administered to the lateral small saphenous vein of the hind limb in each cycle, the blood was collected and plasma was centrifuged at 0.083, 0.25, 0.5, 1, 2, 6, 8, 24, 30, 48, 72 and 96 h after administration, the concentration of Icodec or Insulin-a10 in the plasma was detected.

[4] = single S.C., Degludec 200 nmol/Kg, others 1400 nmol/Kg
[5] = 500 nmol/Kg S.C. three times, Day 0 (1st)
[6] = 500 nmol/Kg S.C. three times, Day 1
[7] = 500 nmol/Kg S.C. three times, Day 4 (2nd)
[8] = 500 nmol/Kg S.C. three times, Day 5
[9] = 500 nmol/Kg S.C. three times, Day 9 (3rd)
[10] = 500 nmol/Kg S.C. three times, Day 10
[11] = 500 nmol/Kg S.C. three times, Day 14

Substance | EC50 (insulin receptor B; 0% HSA) [nM] | Relative HI activity (insulin receptor B; 0% HSA) [%] | EC50 (insulin receptor B; 1.5% HSA) [nM] | Relative 0% HSA activity (insulin receptor B) [%] | Relative HI activity (insulin receptor B; 1.5% HSA) [%] | blood glucose compared with the control group (normal C57BL/6 mice) | effective blood glucose control time (normal C57BL/6 mice; [4]) | time after administration at which blood glucose reached the lowest level (normal C57BL/6 mice; [4]) [h] | random blood glucose [1, 5] | random blood glucose [1, 6] | random blood glucose [1, 7] | random blood glucose [1, 8] | random blood glucose [1, 9] | random blood glucose [1, 10] | random blood glucose [1, 11] | AUClast [2] [ng·h/mL] | MRTINF_obs [2] [h] | T1/2 [2] [h] | AUClast [3] [ng·h/mL] | T1/2 [3] [h] | other results
A14E, B16H, B25H, B29K (N^ε-eicosandioyl-gGlu-2xOEG), DesB30 human insulin analog [Icodec, reference compound] | 77.2 | 1.60 | 1480 | 5.23 | 0.17 | decreased significantly | 96 h | 48 | 32.5 ± 1.6 | 20.3 ± 6.3 | 30.6 ± 2.6 | 19.5 ± 5.8 | 27.0 ± 7.1 | 15.9 ± 6.0 | 33.0 ± 0.9 | 6560 | 30.5 | 16.7 | 35700 ± 120 | 35.7 ± 6.7 | random blood glucose ([1]; 250 nmol/Kg S.C. three times, Day 0 (1st)): 32.5 ± 2.2; random blood glucose ([1]; 250 nmol/Kg S.C. three times, Day 1): 25.7 ± 4.2; random blood glucose ([1]; 250 nmol/Kg S.C. three times, Day 4 (2nd)): 31.3 ± 2.6; random blood glucose ([1]; 250 nmol/Kg S.C. three times, Day 5): 25.1 ± 3.2; random blood glucose ([1]; 250 nmol/Kg S.C. three times, Day 9 (3rd)): 31.8 ± 2.2; random blood glucose ([1]; 250 nmol/Kg S.C. three times, Day 10): 17.2 ± 6.8; random blood glucose ([1]; 250 nmol/Kg S.C. three times, Day 14): 30.6 ± 4.6; random blood glucose ([1]; 1000 nmol/Kg S.C. three times, Day 0 (1st)): 30.8 ± 2.9; random blood glucose ([1]; 1000 nmol/Kg S.C. three times, Day 1): 20.4 ± 4.6; random blood glucose ([1]; 1000 nmol/Kg S.C. three times, Day 4 (2nd)): 31.6 ± 2.1; random blood glucose ([1]; 1000 nmol/Kg S.C. three times, Day 5): 12.8 ± 5.4; random blood glucose ([1]; 1000 nmol/Kg S.C. three times, Day 9 (3rd)): 29.7 ± 3.7; random blood glucose ([1]; 1000 nmol/Kg S.C. three times, Day 10): 10.1 ± 6.4; random blood glucose ([1]; 1000 nmol/Kg S.C. three times, Day 14): 27.7 ± 4.6
A14E, B16H, B25H, B29K(N(ε)-COOH(CH2)18CO-L-Lys-CO(CH2)2CO—(OEG)2), desB30 human insulin analog [Insulin-a10] | 85.5 | 1.44 | 1310 | 6.52 | 0.20 | decreased significantly | more than 96 h | 72 | 32.0 ± 1.7 | 19.7 ± 6.6 | 27.6 ± 4.4 | 15.2 ± 8.9 | 26.6 ± 5.7 | 11.7 ± 9.4 | 26.1 ± 6.2 | 9350 | 29.2 | 17.2 | 28300 ± 3500 | 46 ± 10.8 | blood glucose (normal C57BL/6 mice; 0 h (before administration), single S.C., Degludec 200 nmol/Kg, others 1400 nmol/Kg): 9.1 ± 1.5; blood glucose (normal C57BL/6 mice; 0.25 h after single S.C., Degludec 200 nmol/Kg, others 1400 nmol/Kg): 7.9 ± 1.5; blood glucose (normal C57BL/6 mice; 1 h after single S.C., Degludec 200 nmol/Kg, others 1400 nmol/Kg): 4.4 ± 0.6; blood glucose (normal C57BL/6 mice; 2 h after single S.C., Degludec 200 nmol/Kg, others 1400 nmol/Kg): 4.4 ± 1.3; blood glucose (normal C57BL/6 mice; 4 h after single S.C., Degludec 200 nmol/Kg, others 1400 nmol/Kg): 3.7 ± 1.0; blood glucose (normal C57BL/6 mice; 6 h after single S.C., Degludec 200 nmol/Kg, others 1400 nmol/Kg): 3.5 ± 1.1; blood glucose (normal C57BL/6 mice; 8 h after single S.C., Degludec 200 nmol/Kg, others 1400 nmol/Kg): 3.1 ± 1.0; blood glucose (normal C57BL/6 mice; 10 h after single S.C., Degludec 200 nmol/Kg, others 1400 nmol/Kg): 2.8 ± 0.7; blood glucose (normal C57BL/6 mice; 24 h after single S.C., Degludec 200 nmol/Kg, others 1400 nmol/Kg): 2.1 ± 0.7; blood glucose (normal C57BL/6 mice; 48 h after single S.C., Degludec 200 nmol/Kg, others 1400 nmol/Kg): 1.7 ± 0.6; blood glucose (normal C57BL/6 mice; 72 h after single S.C., Degludec 200 nmol/Kg, others 1400 nmol/Kg): 1.8 ± 0.1; blood glucose (normal C57BL/6 mice; 96 h after single S.C., Degludec 200 nmol/Kg, others 1400 nmol/Kg): 4.0 ± 4.0; effect on blood glucose control compared with Icodec (normal C57BL/6 mice; single S.C. 1400 nmol/Kg): consistent with the trend of Icodec and can be maintained for a longer time; time after administration at which blood glucose returned to normal (normal C57BL/6 mice; [4]): > 96 h; effective glucose control time ([1]; 500 nmol/Kg S.C.): 120 h; time after administration at which blood glucose returned to normal level ([1]; 500 nmol/Kg S.C., after the first administration): 96 h; time after administration at which blood glucose returned to normal level ([1]; 500 nmol/Kg S.C., after the second and third administrations): 120 h; time after each administration at which blood glucose reached the lowest level ([1]; Icodec 250, 500 and 1000 nmol/kg, Insulin-a3 and Insulin-a10 500 nmol/Kg): 24 h; glucose control effect compared with the Icodec-1000 nmol/kg group ([1]; test drug 500 nmol/Kg S.C.): equivalent
